Laboratory results reported in patent US10738051B2, “β-lactamase inhibitors” (priority 2016, dated 2020).

Experiments:
Experiment in all cases: In vitro synergistic inhibitory concentration (SIC) assay
Assay type in all cases: cell-based
[1] = tested on: K. pneumoniae ATCC BAA-1899 (KPC); conditions: Klebsiella pneumoniae, ATCCBAA1899, 37° C. 20 hours, read-out: minimum inhibitory concentration, used alone
Method: (§1) 2) 30 μL dimethyl sulfoxide was added to columns 2-12 of the 96-V well plate. 60 μL prepared ceftazidime was added to column 1. 30 μL ceftazidime was transferred from column 1 to column 2 and mixed with a pipette. The same operation was continued until column 11, and 30 μL of the mixture in column 11 was discarded. This was the compound mother plate.
(§2) Mix the liquid in the mother plate with a pipette.
(§3) 4) One day before the experiment, the bacterial glycerol stock which was stored in a −80° C. refrigerator was streaked on a trypticase soy agar plate (TSA), and the plate was incubated in a 37° C. incubator overnight. On the day of the experiment, the monoclonal bacterial was suspended in physiological saline and the turbidity of which was adjusted to 0.5 McFarland standard, corresponding to 1×10^8 CFU/ml. This suspension was diluted 100-fold to 1×10^6 CFU/mL with caton-adjusted Mueller-Hnton broth (CAMHB), which was used as an inoculation fluid.
(§4) 5) a 96-U plate was used as a test plate. Firstly, adding 98 μL CAMHB to each well of the test plate and transferring 2 μL solution in the mother plate to the test plate. 100 μL inoculation fluid was added to each well of the test plate.
(§5) 6) The test plate was incubated at 37° C. for 20 hours.
(§6) The above-mentioned method was also used to determine the antibacterial activity of the test compound or the antibiotic when used alone.

[2] = tested on: K. pneumoniae ATCC BAA-2524 (OXA-48); conditions: Klebsiella pneumoniae, ATCCBAA2524, 37° C. 20 hours, read-out: minimum inhibitory concentration, used alone
Method: as §1, §2, §3, §4, §5, §6

[3] = tested on: E. coli ATCC BAA-2523 (OXA-48); conditions: Escherichia coli, ATCCBAA2523, 37° C. 20 hours, read-out: minimum inhibitory concentration, used alone
Method: as §1, §2, §3, §4, §5, §6

[4] = tested on: E. cloacae ATCC BAA-1143 (AmpC); conditions: Enterobacter cloacae, ATCCBAA1143, 37° C. 20 hours, read-out: minimum inhibitory concentration, used alone
Method: as §1, §2, §3, §4, §5, §6

[5] = tested on: K. pneumoniae ATCC-700603 (SHV-18); conditions: Klebsiella pneumoniae, ATCC700603, 37° C. 20 hours, read-out: minimum inhibitory concentration, used alone
Method: as §1, §2, §3, §4, §5, §6

[6] = tested on: K. pneumoniae ATCC BAA-2472 (NDM-1); conditions: Klebsiella pneumoniae, ATCCBAA2472, 37° C. 20 hours, read-out: minimum inhibitory concentration, used alone
Method: as §1, §2, §3, §4, §5, §6

[7] = tested on: K. pneumoniae ATCC 51504 (TEM-10); conditions: Klebsiella pneumoniae, ATCC51504, 37° C. 20 hours, read-out: minimum inhibitory concentration, used alone
Method: as §1, §2, §3, §4, §5, §6

[8] = tested on: K. pneumoniae ATCC BAA-205 (TEM-1/SHV-1/SHV-12); conditions: Klebsiella pneumoniae, ATCCBAA205, 37° C. 20 hours, read-out: minimum inhibitory concentration, used alone
Method: as §1, §2, §3, §4, §5, §6

`N=C(N)NOCCONC(=O)[C@@H]1CC[C@@H]2CN1C(=O)N2OS(=O)(=O)O` [Compound 1] was tested, and the MIC [1] was greater than 128 µg/mL, the MIC [2] was greater than 128 µg/mL and the MIC [3] was 8 µg/mL. The MIC [4] was 16 µg/mL, the MIC [5] was greater than 128 µg/mL and the MIC [6] was greater than 128 µg/mL. It also gave an MIC [7] greater than 128 µg/mL and an MIC [8] of 128 µg/mL.
